Earlier results in patent publication US5482960A, “Nonpeptide endothelin antagonists” (Warner-Lambert Company, priority 1994, dated 1996).
Where a SMILES comes first, the peptide text is derived from it. [ ]: non-standard residue; d: D form.

Tests used:
ET receptor = conditions: allergic sheep; cited from earlier work
ETA [1] = conditions: following subarachnoid hemorrhage; cited from earlier work
ETA [2] = conditions: mouse model of endotoxic shock; cited from earlier work
ETA [3] = conditions: oral; cited from earlier work
liver = conditions: cited from earlier work
small intestinal mucosa = conditions: local intra-arterial, rats; cited from earlier work
endothelin = conditions: rats; cited from earlier work

## CC(C)C[C@@H]1NC(=O)[C@@H](C(C)C)NC(=O)[C@@H]2CCCN2C(=O)[C@@H](CC(=O)O)NC(=O)[C@@H](Cc2c[nH]c3ccccc23)NC1=O [BQ-123] (cyclo(L[dW][dD]P[dV]))
ET receptor
  block of ET-1 induced bronchoconstriction and tracheal smooth muscle contraction: block ET-1 induced bronchoconstriction and tracheal smooth muscle contraction
ETA [1]
  early cerebral vasospasm: prevent early cerebral vasospasm following subarachnoid hemorrhage
ETA [2]
  survival rate: significantly increased the survival rate

## Cc1noc(NS(=O)(=O)c2cccc3c(N(C)C)cccc23)c1C [5-(Dimethylamino)-N-(3,4-dimethyl-5-isoxazolyl)-1-naphthalenesulfonamide]
ETA [3]
  antihypertensive effect: demonstrated an oral antihypertensive effect

## endothelin
liver
  vasoconstriction of the hepatic vasculature and hepatic glucose output: sustained vasoconstriction of the hepatic vasculature and a significant increase in hepatic glucose output
Small intestinal mucosa
  small intestinal mucosal damage: induce small intestinal mucosal damage in rats in a dose-dependent manner

## COc1cccc(Oc2c(NS(=O)(=O)c3ccc(C(C)(C)C)cc3)ncnc2OCCO)c1 [RO 46-2005]
endothelin
  efficacy in models of acute renal ischemia and subarachnoid hemorrhage: effective in models of acute renal ischemia and subarachnoid hemorrhage in rats
